According to patent US20240239863A1, “GIP RECEPTOR AGONIST AND USE THEREOF” (HANGZHOU ZHONGMEIHUADONG PHARMACEUTICAL CO., LTD., priority 2022, published 2024):
Read-outs that look alike come from different tables or passages of the source. Starred links: 1 amine or outer side, 2 acyl side, 3 side chain; linkers in the order of their positions; H or OH if unused. Non-standard residues stand in square brackets, D forms with d. Residues, ends and D or L forms follow the SMILES beside them. Groups on a side chain read outwards from the residue. *: point of attachment. d(γGlu) = O=C(O)[C@@H](CCC(=O)[*:2])N[*:1]; C18 diacid = O=C(O)CCCCCCCCCCCCCCCCC(=O)*; AEEA = NCCOCCOCC(=O)O; Aib = CC(C)(N)C(=O)O

Target: hGLP-1R (Homo sapiens, UniProt P43220)
Sequence (P43220 24-463): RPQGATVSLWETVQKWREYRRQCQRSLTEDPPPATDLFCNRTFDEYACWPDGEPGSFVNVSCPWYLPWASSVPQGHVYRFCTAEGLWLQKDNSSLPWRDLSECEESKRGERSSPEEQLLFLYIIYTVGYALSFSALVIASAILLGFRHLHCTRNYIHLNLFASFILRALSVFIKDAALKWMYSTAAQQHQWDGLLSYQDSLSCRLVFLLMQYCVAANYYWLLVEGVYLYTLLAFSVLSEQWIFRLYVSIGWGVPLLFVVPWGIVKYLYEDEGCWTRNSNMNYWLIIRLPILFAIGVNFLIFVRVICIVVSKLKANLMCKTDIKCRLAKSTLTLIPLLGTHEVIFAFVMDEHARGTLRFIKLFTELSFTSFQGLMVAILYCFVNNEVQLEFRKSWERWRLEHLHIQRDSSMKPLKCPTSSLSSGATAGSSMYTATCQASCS
Assay: Cell agonistic activity at GLP-1 receptor (Example 7)
Type: cell-based

Compound	EC50 [nM]	EC50 (read-out: hGLP-1R EC50) [nM]
CC[C@H](C)[C@H](NC(=O)[C@H](CO)NC(=O)[C@H](Cc1ccc(O)cc1)NC(=O)[C@H](CC(=O)O)NC(=O)[C@H](CO)NC(=O)[C@@H](NC(=O)[C@H](Cc1ccccc1)NC(=O)[C@@H](NC(=O)CNC(=O)[C@H](CCC(=O)O)NC(=O)C(C)(C)NC(=O)[C@@H](N)Cc1ccc(O)cc1)[C@@H](C)O)[C@@H](C)CC)C(=O)N[C@@H](C)C(=O)N[C@@H](CC(C)C)C(=O)N[C@@H](CC(=O)O)C(=O)N[C@@H](CCCNC(=N)N)C(=O)N[C@@H](CC(C)C)C(=O)N[C@@H](Cc1c[nH]cn1)C(=O)N[C@@H](CCC(N)=O)C(=O)N[C@@H](CCC(N)=O)C(=O)N[C@@H](CC(=O)O)C(=O)N[C@@H](Cc1ccccc1)C(=O)N[C@H](C(=O)N[C@@H](CCCCN)C(=O)N[C@@H](Cc1c[nH]c2ccccc12)C(=O)N[C@@H](CC(C)C)C(=O)N[C@@H](CC(C)C)C(=O)N[C@@H](C)C(=O)N[C@@H](CCC(N)=O)C(=O)N[C@@H](CCCNC(=N)N)C(=O)NCC(=O)O)C(C)C [Sequence 17] (H-Y[Aib]EGTFISDYSIALDRLHQQDFVKWLLAQRG-OH; N-terminus and C-terminus assumed)	> 0.1	
CC[C@H](C)[C@H](NC(=O)[C@H](CO)NC(=O)[C@H](Cc1ccc(O)cc1)NC(=O)[C@H](CC(=O)O)NC(=O)[C@H](CO)NC(=O)[C@@H](NC(=O)[C@H](Cc1ccccc1)NC(=O)[C@@H](NC(=O)CNC(=O)[C@H](CCC(=O)O)NC(=O)C(C)(C)NC(=O)[C@@H](N)Cc1ccc(O)cc1)[C@@H](C)O)[C@@H](C)CC)C(=O)N[C@@H](C)C(=O)N[C@@H](CC(C)C)C(=O)N[C@@H](CC(=O)O)C(=O)N[C@@H](CCCNC(=N)N)C(=O)N[C@@H](CC(C)C)C(=O)N[C@@H](Cc1c[nH]cn1)C(=O)N[C@@H](CCC(N)=O)C(=O)N[C@@H](CCC(N)=O)C(=O)N[C@@H](CC(=O)O)C(=O)N[C@@H](Cc1ccccc1)C(=O)N[C@H](C(=O)N[C@@H](CC(N)=O)C(=O)N[C@@H](Cc1c[nH]c2ccccc12)C(=O)N[C@@H](CC(C)C)C(=O)N[C@@H](CC(C)C)C(=O)N[C@@H](C)C(=O)N[C@@H](CCC(N)=O)C(=O)N[C@@H](CCCCN)C(=O)NCC(=O)O)C(C)C [Sequence 18] (H-Y[Aib]EGTFISDYSIALDRLHQQDFVNWLLAQKG-OH; N-terminus and C-terminus assumed)	> 0.1	
CC[C@H](C)[C@H](NC(=O)[C@H](CO)NC(=O)[C@H](Cc1ccc(O)cc1)NC(=O)[C@H](CC(=O)O)NC(=O)[C@H](CO)NC(=O)[C@@H](NC(=O)[C@H](Cc1ccccc1)NC(=O)[C@@H](NC(=O)CNC(=O)[C@H](CCC(=O)O)NC(=O)C(C)(C)NC(=O)[C@@H](N)Cc1ccc(O)cc1)[C@@H](C)O)[C@@H](C)CC)C(=O)N[C@@H](C)C(=O)N[C@@H](CC(C)C)C(=O)N[C@@H](CC(=O)O)C(=O)N[C@@H](CCCCN)C(=O)N[C@@H](CC(C)C)C(=O)N[C@@H](Cc1c[nH]cn1)C(=O)N[C@@H](CCC(N)=O)C(=O)N[C@@H](CCC(=O)O)C(=O)N[C@@H](CC(=O)O)C(=O)N[C@@H](Cc1ccccc1)C(=O)N[C@H](C(=O)N[C@@H](CC(N)=O)C(=O)N[C@@H](Cc1c[nH]c2ccccc12)C(=O)N[C@@H](CC(C)C)C(=O)N[C@@H](CC(C)C)C(=O)N[C@@H](C)C(=O)N[C@@H](CCC(N)=O)C(=O)N[C@@H](CCCNC(=N)N)C(=O)NCC(=O)O)C(C)C [Sequence 10] (H-Y[Aib]EGTFISDYSIALDKLHQEDFVNWLLAQRG-OH; N-terminus and C-terminus assumed)	> 0.1	
CC[C@H](C)[C@H](NC(=O)[C@H](CO)NC(=O)[C@H](Cc1ccc(O)cc1)NC(=O)[C@H](CC(=O)O)NC(=O)[C@H](CO)NC(=O)[C@@H](NC(=O)[C@H](Cc1ccccc1)NC(=O)[C@@H](NC(=O)CNC(=O)[C@H](CCC(=O)O)NC(=O)C(C)(C)NC(=O)[C@@H](N)Cc1ccc(O)cc1)[C@@H](C)O)[C@@H](C)CC)C(=O)N[C@@H](C)C(=O)N[C@@H](CC(C)C)C(=O)N[C@@H](CC(=O)O)C(=O)N[C@@H](CCC(=O)O)C(=O)N[C@H](C(=O)N[C@@H](Cc1c[nH]cn1)C(=O)N[C@@H](CCC(N)=O)C(=O)N[C@@H](CCCCN)C(=O)N[C@@H](CC(=O)O)C(=O)N[C@@H](Cc1ccccc1)C(=O)N[C@H](C(=O)N[C@@H](CC(N)=O)C(=O)N[C@@H](Cc1c[nH]c2ccccc12)C(=O)N[C@@H](CC(C)C)C(=O)N[C@@H](CC(C)C)C(=O)N[C@@H](C)C(=O)N[C@@H](CCC(N)=O)C(=O)N[C@@H](CCCNC(=N)N)C(=O)NCC(=O)O)C(C)C)[C@@H](C)CC [Sequence 5] (H-Y[Aib]EGTFISDYSIALDEIHQKDFVNWLLAQRG-OH; N-terminus and C-terminus assumed)	> 0.1	
CC[C@H](C)[C@H](NC(=O)[C@H](CO)NC(=O)[C@H](Cc1ccc(O)cc1)NC(=O)[C@H](CC(=O)O)NC(=O)[C@H](CO)NC(=O)[C@@H](NC(=O)[C@H](Cc1ccccc1)NC(=O)[C@@H](NC(=O)CNC(=O)[C@H](CCC(=O)O)NC(=O)C(C)(C)NC(=O)[C@@H](N)Cc1ccc(O)cc1)[C@@H](C)O)[C@@H](C)CC)C(=O)N[C@@H](C)C(=O)N[C@@H](CC(C)C)C(=O)N[C@@H](CC(=O)O)C(=O)N[C@@H](CCCCNC(=O)COCCOCCNC(=O)COCCOCCNC(=O)CC[C@@H](NC(=O)CCCCCCCCCCCCCCCCC(=O)O)C(=O)O)C(=O)N[C@@H](CC(C)C)C(=O)N[C@@H](Cc1c[nH]cn1)C(=O)N[C@@H](CCC(N)=O)C(=O)N[C@@H](CCC(=O)O)C(=O)N[C@@H](CC(=O)O)C(=O)N[C@@H](Cc1ccccc1)C(=O)N[C@H](C(=O)N[C@@H](CC(N)=O)C(=O)N[C@@H](Cc1c[nH]c2ccccc12)C(=O)N[C@@H](CC(C)C)C(=O)N[C@@H](CC(C)C)C(=O)N[C@@H](C)C(=O)N[C@@H](CCC(N)=O)C(=O)N[C@@H](CCCNC(=N)N)C(=O)NCC(=O)O)C(C)C [Peptide 10, N-{ε-16}-18-{[(23R)-23-carboxyl-2,11,20-trioxo-10,19-diaza-4,7,13,16-tetraoxatricosyl-23-yl]amino}-18-oxooctadecanoic acid acetyl-[Aib2, L14, L17, E20, R30]-hGIP(1-31)] (H-Y[Aib]EGTFISDYSIALDK([AEEA-AEEA-d(γGlu)-C18 diacid])LHQEDFVNWLLAQRG-OH)		> 0.1
CC[C@H](C)[C@H](NC(=O)[C@H](CO)NC(=O)[C@H](Cc1ccc(O)cc1)NC(=O)[C@H](CC(=O)O)NC(=O)[C@H](CO)NC(=O)[C@@H](NC(=O)[C@H](Cc1ccccc1)NC(=O)[C@@H](NC(=O)CNC(=O)[C@H](CCC(=O)O)NC(=O)C(C)(C)NC(=O)[C@@H](N)Cc1ccc(O)cc1)[C@@H](C)O)[C@@H](C)CC)C(=O)N[C@@H](C)C(=O)N[C@@H](CC(C)C)C(=O)N[C@@H](CC(=O)O)C(=O)N[C@@H](CCCNC(=N)N)C(=O)N[C@H](C(=O)N[C@@H](Cc1c[nH]cn1)C(=O)N[C@@H](CCC(N)=O)C(=O)N[C@@H](CCC(N)=O)C(=O)N[C@@H](CC(=O)O)C(=O)N[C@@H](Cc1ccccc1)C(=O)N[C@H](C(=O)N[C@@H](CCCCN)C(=O)N[C@@H](Cc1c[nH]c2ccccc12)C(=O)N[C@@H](CC(C)C)C(=O)N[C@@H](CC(C)C)C(=O)N[C@@H](C)C(=O)N[C@@H](CCC(N)=O)C(=O)N[C@@H](CCCNC(=N)N)C(=O)NCC(=O)O)C(C)C)[C@@H](C)CC [Sequence 13] (H-Y[Aib]EGTFISDYSIALDRIHQQDFVKWLLAQRG-OH; N-terminus and C-terminus assumed)	> 0.1	
CC[C@H](C)[C@H](NC(=O)[C@H](CO)NC(=O)[C@H](Cc1ccc(O)cc1)NC(=O)[C@H](CC(=O)O)NC(=O)[C@H](CO)NC(=O)[C@@H](NC(=O)[C@H](Cc1ccccc1)NC(=O)[C@@H](NC(=O)CNC(=O)[C@H](CCC(=O)O)NC(=O)C(C)(C)NC(=O)[C@@H](N)Cc1ccc(O)cc1)[C@@H](C)O)[C@@H](C)CC)C(=O)N[C@@H](C)C(=O)N[C@@H](CC(C)C)C(=O)N[C@@H](CC(=O)O)C(=O)N[C@@H](CCCNC(=N)N)C(=O)N[C@@H](CC(C)C)C(=O)N[C@@H](Cc1c[nH]cn1)C(=O)N[C@@H](CCC(N)=O)C(=O)N[C@@H](CCC(=O)O)C(=O)N[C@@H](CC(=O)O)C(=O)N[C@@H](Cc1ccccc1)C(=O)N[C@H](C(=O)N[C@@H](CC(N)=O)C(=O)N[C@@H](Cc1c[nH]c2ccccc12)C(=O)N[C@@H](CC(C)C)C(=O)N[C@@H](CC(C)C)C(=O)N[C@@H](C)C(=O)N[C@@H](CCC(N)=O)C(=O)N[C@@H](CCCCN)C(=O)NCC(=O)O)C(C)C [Sequence 16] (H-Y[Aib]EGTFISDYSIALDRLHQEDFVNWLLAQKG-OH; N-terminus and C-terminus assumed)	> 0.1	
CC[C@H](C)[C@H](NC(=O)[C@H](CCCCN)NC(=O)[C@H](CC(=O)O)NC(=O)[C@H](CC(C)C)NC(=O)C(C)(C)NC(=O)[C@@H](NC(=O)[C@H](CO)NC(=O)[C@H](Cc1ccc(O)cc1)NC(=O)[C@H](CC(=O)O)NC(=O)[C@H](CO)NC(=O)[C@@H](NC(=O)[C@H](Cc1ccccc1)NC(=O)[C@@H](NC(=O)CNC(=O)[C@H](CCC(=O)O)NC(=O)C(C)(C)NC(=O)[C@@H](N)Cc1ccc(O)cc1)[C@@H](C)O)[C@@H](C)CC)[C@@H](C)CC)C(=O)N[C@@H](Cc1c[nH]cn1)C(=O)N[C@@H](CCC(N)=O)C(=O)N[C@@H](CCC(=O)O)C(=O)N[C@@H](CC(=O)O)C(=O)N[C@@H](Cc1ccccc1)C(=O)N[C@H](C(=O)N[C@@H](CCCCN)C(=O)N[C@@H](Cc1c[nH]c2ccccc12)C(=O)N[C@@H](CC(C)C)C(=O)N[C@@H](CC(C)C)C(=O)N[C@@H](C)C(=O)N[C@@H](CCC(N)=O)C(=O)N[C@@H](CCCCN)C(=O)NCC(=O)O)C(C)C [Sequence 1] (H-Y[Aib]EGTFISDYSI[Aib]LDKIHQEDFVKWLLAQKG-OH; N-terminus and C-terminus assumed)	> 0.1	
CC[C@H](C)[C@H](NC(=O)[C@H](CO)NC(=O)[C@H](Cc1ccc(O)cc1)NC(=O)[C@H](CC(=O)O)NC(=O)[C@H](CO)NC(=O)[C@@H](NC(=O)[C@H](Cc1ccccc1)NC(=O)[C@@H](NC(=O)CNC(=O)[C@H](CCC(=O)O)NC(=O)C(C)(C)NC(=O)[C@@H](N)Cc1ccc(O)cc1)[C@@H](C)O)[C@@H](C)CC)C(=O)N[C@@H](C)C(=O)N[C@@H](CC(C)C)C(=O)N[C@@H](CC(=O)O)C(=O)N[C@@H](CCCCN)C(=O)N[C@@H](CC(C)C)C(=O)N[C@@H](Cc1c[nH]cn1)C(=O)N[C@@H](CCC(N)=O)C(=O)N[C@@H](CCC(N)=O)C(=O)N[C@@H](CC(=O)O)C(=O)N[C@@H](Cc1ccccc1)C(=O)N[C@H](C(=O)N[C@@H](CC(N)=O)C(=O)N[C@@H](Cc1c[nH]c2ccccc12)C(=O)N[C@@H](CC(C)C)C(=O)N[C@@H](CC(C)C)C(=O)N[C@@H](C)C(=O)N[C@@H](CCC(N)=O)C(=O)N[C@@H](CCCNC(=N)N)C(=O)NCC(=O)O)C(C)C [Sequence 8] (H-Y[Aib]EGTFISDYSIALDKLHQQDFVNWLLAQRG-OH; N-terminus and C-terminus assumed)	> 0.1	
